Assay results: US6482805B2 (Parker Hughes Institute, priority 1998, dated 2002)
Where two headings read alike, the source gives them in different places.

What was measured:
HIV-1 = assay: Anti-HIV-1 activity, p24 antigen assay in infected PBMC (Example 1); type: cell-based; conditions: for anti-HIV activity, in words: compared with parent AZT derivatives
Method: Subsequently, cells were cultured in 96-well microtiter plates (100 μl/well; 2×10^6/ml, triplicate wells) in the presence and absence of various concentrations (0.00 μM to 100 μM) of drugs for 7 days. Aliquots of culture supernatants were removed from the wells on the 7th day after infection for p24 antigen enzyme immunoassay as an indication of viral replication. Erice et al. Antimicrob. Agents and Chemother. […] Agents and Chemother. […] Percent inhibition of virus replication was calculated by comparing the p24 antigen values from the test drug-treated infected cells with p24 antigen values from untreated infected cells. […] Cell viability was quantified by a colorimetric […] assay. F. M. Uckun et al., Antimicrob. Agents and Chemother.

human sperm = assay: Sperm motility assay by CASA (Example 1); type: cell-based; conditions: for spermicidal activity, in words: compared with related derivatives; for EC50: 3 hours incubation at 37° C., CASA, read-out: EC50, sperm motility
Method: All donor specimens were obtained after informed consent and in compliance with the guidelines of the Wayne Hughes Institute Institutional Review Board. Motile sperm (≧10×10^6/ml), were suspended in 0.5 ml of Biggers, Whitten, and Whittingam's medium (BWW) containing 25 mM HEPES (Irvine Scientific, Santa Ana, Calif.), and 0.3% bovine serum albumin (BSA; Fraction V, Sigma Chemical Co, St. Louis, Mo.) in the presence and absence of serial two-fold dilutions of test substance (300 μM to 4.6 μm) in 1% DMSO. The stock solutions of synthetic WHI compounds were prepared in DMSO (10 mg/ml) and diluted in DMSO to yield the desired concentrations. Corresponding volume of DMSO (1%) was added to control tubes. N-9 was diluted in BWW-0.3% BSA (pH 7.4) to yield the desired concentrations (4.6 to 300 μM). After 3 hours of incubation at 37° C., the percentage of motile sperm was evaluated by computer-assisted sperm analysis (CASA) as described [L. J. Burkman, Fertil. Steril. […] The percent motilities were compared with sham-treated control suspensions of motile sperm. […] Non-linear regression analyses were used to determine the EC50 values from the concentration effect curves using GraphPad PRISM software (San Diego, Calif.).
For evaluating sperm motion kinematics using CASA, 4 μl each of sperm suspension was loaded into two 20-μm Microcell chambers (Conception Technologies) that was placed onto a counting chamber at 37° C. At least 5-8 fields per chamber were scanned for analysis using a Hamilton Thorne Integrated Visual Optical System (IVOS), version 10 instrument (Hamilton Thorne Research Inc., Danvers, Mass.). Each field was recorded for 30 seconds. […] The performance of the analyzer was periodically checked using the play-back function. The attributes of sperm kinematic parameters evaluated included numbers of motile (MOT) and progressively (PRG) motile sperm; curvilinear velocity (VCL; a measure of the total distance traveled by a given sperm during the acquisition divided by the time elapsed); average path velocity (VAP; the spatially averaged path that eliminates the wobble of the sperm head), straight line velocity (VSL; the straight-line distance from beginning to end of track divided by time taken), beat cross frequency (BCF, frequency of sperm head crossing sperm average path), the amplitude of lateral head displacement (ALH; the mean width of sperm head oscillation) and the derivatives, straightness ([…]); linearity (LIN=100×VSL/VCL; departure of sperm track from a straight line). Data from each individual cell track were recorded and analyzed. At least 200 motile sperm were analyzed for each aliquot sampled.

sperm acrosome = assay: Sperm acrosome and membrane integrity by FITC-lectin staining, confocal, SEM and TEM (Example 4); type: cell-based, human; conditions: 100 μM WHI compounds or 10 μM Cal A23187, 3 hours
Method: The percentages of sperm with an intact acrosome were evaluated by fluorescence microscopy (Olympus BX-60) following fixation and ethanol permeabilization of the sperm pellets and subsequent staining with fluorescein (FITC)-conjugated Pisum sativum lectin (Sigma). In positive control sperm, the acrosome reaction was induced by incubating (3 hours at 37° C.) the sperm suspension with 10 μm calcium ionophore (Cal) A23187 (Sigma). […] The percentage of sperm positive for PI were determined by flow cytometry using a FACS Vantage flow cytometer (Becton Dickinson and Co., Mountain View, Calif.). The sperm in the swim-up fractions were identified by their characteristic forward and 90° angle light scattering properties [O. J. D'Cruz and G. G. Haas, Jr. Fertil. Steril. 58, 633 (1992)]. All analyses were done using the 488-nm excitation from an krypton/argon laser with a 635-nm band pass filter for PI emission. The percentage of sperm positive for PI staining were determined using cutoff signals for membrane-intact motile sperm.
Ethanol permeabilized and air-dried sperm smears were stained sequentially with the three fluorescent markers, FITC-Pisum sativum, TOTO-3 iodide, and Nile red, each marking a different target (acrosome, nucleus, and plasma membrane of permeabilized sperm respectively). Samples were examined under a BioRad MRC-1024 Laser Scanning Confocal Microscope (BioRad Laboratories, Hercules, Calif.) equipped with a krypton/argon mixed gas laser (excitation lines 488, 568, and 647 nm) and mounted on a Nikon Eclipse E800 series upright microscope. The fluorescence emission of fluorescein, TOTO-3 iodide, and Nile red from the acrosomal region, nucleus, and the plasma membrane of sperm after ethanol permeabilization were simultaneously detected using the 598/40 nm, 522 DF32, and 680 DF32 emission/filter respectively. Confocal images were obtained using a Nikon 60× (NA 1.35) objective lens and Kalman collection filter. Digitized images were processed with the Adobe Photoshop software (Adobe Systems, Mountain View, Calif.). Final images were printed using a Fujix Pictography 3000 (Fuji Photo Film Co., Tokyo, Japan) color printer.
High-resolution low-voltage scanning electron microscopy was utilized for topographical imaging of different membrane domains over the sperm head as described [M. H. Stoffel et al. Molecular. Reprod. Develop. 34, 175 (1993); S. L. Erlandsen et al. Scanning 11, 169 (1989)]. […] Washed sperm suspensions were placed on 0.1% poly-L-lysine-coated glass chips and allowed to adhere to the glass over a 60 minute incubation period on ice. The supernatants were decanted, and adherent cells were fixed in 1% paraformaldehyde and 1% glutaraldehyde in 0.14 M sodium cacodylate buffer for 3 hours. To preserve plasma membrane integrity, sperm were post-fixed in 1% osmium tetroxide (OSO4) containing 0.1% ruthenium red in 0.14 M cacodylate buffer for 1 hour at 4° C. All samples were dehydrated through an ascending ethanol series, critical point dried, and coated with approximately 2 nm of platinum using ion beam sputtering with argon (4 mA at 10 ke V; Ion Tech Ltd., Middlesex, England). All samples were examined in a Hitachi S-900 SEM at an accelerating voltage of 2 keV. Sperm were observed under low magnification (×2,000-5000) and representative sperm were photographed under intermediate magnification (×18,000-25,000). In each specimen evaluated, at least 200 sperm were scanned for the intactness of sperm acrosomal region.
For transmission electron microscopy, treated sperm were fixed in 3% glutaraldehyde in 5% sucrose in 0.2 M cacodylate buffer for 3 hours at room temperature. The samples were post-fixed in 1% OSO4, 5% sucrose and 0.1% ruthenium red for 2 hours at 4° C. The samples were dehydrated in ascending ethanol series, and embedded in Spurr's epoxy. Thin sections (90 nm) were prepared on a Reichert-Jung Ultracut E and stained with uranyl acetate and lead citrate.

5-Bromo-6-methoxy-5,6-dihydro-3 ′-deoxythymidine 5′-[Phenyl methoxyalaninyl phosphate] [WHI-12]
anti-HIV activity, in words (HIV-1): reduction in the anti-HIV activity
spermicidal activity, in words (human sperm): improvement of the spermicidal activity

5-Bromo-6-methoxy-5,6-dihydro-3′-deoxythymidine 5′-[p-Bromo phenyl methoxyalaninyl phosphate] [WHI-11]
anti-HIV activity, in words (HIV-1): reduction in the anti-HIV activity
spermicidal activity, in words (human sperm): improvement of the spermicidal activity

5-bromo-6-methoxy-5,6-dihydro-AZT [WHI-01]
anti-HIV activity, in words (HIV-1): without significantly decreasing the anti-HIV activity
EC50 (human sperm): 104 µM

Cc1cn([C@H]2C[C@H](N=[N+]=[N-])[C@@H](CO)O2)c(=O)[nH]c1=O [AZT, 3′-azido-3′-deoxythymidine, reference compound]
IC50 (HIV-1; Human immunodeficiency virus 1, PBMC, 168 h, read-out: IC50, HIV-1 replication (p24 antigen)): 0.006 µM
effect on sperm motion parameters (CASA kinematics) (human sperm): did not alter the sperm motion parameters
effect on sperm motility (human sperm; concentrations as high as 300 μm): did not affect sperm motility

CNc1ccc2oc(C[C@H]3O[C@@]4(CC[C@H]3C)O[C@H]([C@H](C)C(=O)c3ccc[nH]3)[C@H](C)C[C@H]4C)nc2c1C(=O)O [Cal A23187, calcium ionophore (Cal) A23187, reference compound]
sperm head topography by scanning electron microscopy (sperm acrosome): blebbing or vesiculation, fenestration, and loss of plasma and acrosomal membranes

COC1N([C@H]2C[C@H](N)[C@@H](CO)O2)C(=O)NC(=O)C1(C)Br (stereo partly shown) [WHI-03, 5-Bromo-6-methoxy-5,6-dihydro-3′-amino-3 ′-deoxythymidine]
anti-HIV activity, in words (HIV-1): substantially reduced anti-HIV activity
EC50 (human sperm; Homo sapiens, Sperm): 12 µM
melting point: 188 to 190 °C (dec.)
